The record followed here is PMC11790763, “A Peptide Motif Covering Splice Site B in Neuroligin-1 Binds to Aβ and Acts as a Neprilysin Inhibitor” (Molecular Neurobiology, 2024).

The target in experiment [1] is T1, Aβ1-42 (Homo sapiens, UniProt P05067).
T1 construct: Aβ1-42, at a final concentration of 75 μM (pH 7.4); purchased Bachem AG (Bubendorf, Switzerland) or Schafer-N; host or cells: synthetic peptide
Description: Aβ1-42 aggregation assay (thioflavin T fluorescence). The following applies: 75 μM Aβ1-42 + 10 μM peptide, 37 °C, 8 days, 50 mM Tris pH 7.4, ThT 5 μM, triplicates; slopes compared with Aβ alone. The method, then: Aβ1-42 was dissolved in sterile deionized water to a final concentration of 1 mM. Then, the peptide was subjected to a basic shock by adding 2 M NaOH to pH 12 followed by neutralization with 1 M HCl. Aβ1-42, at a final concentration of 75 μM (pH 7.4) either alone or in combination with NL1 (1 μM), neurolide (10 μM), or NLp7 (10 μM), was loaded in triplicates on 96-well plate. Immediately after mixing the samples, thioflavin T (5 μM, ThT; Sigma-Aldrich), dissolved in the aggregation buffer (50 mM Tris, pH 7.4), was added to wells and plate was incubated at 37 °C for 8 days. The formation of beta-amyloid aggregates was monitored first for 210 min and then every 24 h by recording changes in ThT fluorescence at excitation/emission (Ex/Em) = 440/482 nm.

In experiment [2] the target is T2, brain-derived NEP (Mus musculus, UniProt Q61391).
T2 construct: Clear supernatants were used as membrane-extracted fractions; from tissue; host or cells: adult mouse brain without cerebellum, Triton X-100-extracted membrane fraction
T2 sequence (Q61391 1-750): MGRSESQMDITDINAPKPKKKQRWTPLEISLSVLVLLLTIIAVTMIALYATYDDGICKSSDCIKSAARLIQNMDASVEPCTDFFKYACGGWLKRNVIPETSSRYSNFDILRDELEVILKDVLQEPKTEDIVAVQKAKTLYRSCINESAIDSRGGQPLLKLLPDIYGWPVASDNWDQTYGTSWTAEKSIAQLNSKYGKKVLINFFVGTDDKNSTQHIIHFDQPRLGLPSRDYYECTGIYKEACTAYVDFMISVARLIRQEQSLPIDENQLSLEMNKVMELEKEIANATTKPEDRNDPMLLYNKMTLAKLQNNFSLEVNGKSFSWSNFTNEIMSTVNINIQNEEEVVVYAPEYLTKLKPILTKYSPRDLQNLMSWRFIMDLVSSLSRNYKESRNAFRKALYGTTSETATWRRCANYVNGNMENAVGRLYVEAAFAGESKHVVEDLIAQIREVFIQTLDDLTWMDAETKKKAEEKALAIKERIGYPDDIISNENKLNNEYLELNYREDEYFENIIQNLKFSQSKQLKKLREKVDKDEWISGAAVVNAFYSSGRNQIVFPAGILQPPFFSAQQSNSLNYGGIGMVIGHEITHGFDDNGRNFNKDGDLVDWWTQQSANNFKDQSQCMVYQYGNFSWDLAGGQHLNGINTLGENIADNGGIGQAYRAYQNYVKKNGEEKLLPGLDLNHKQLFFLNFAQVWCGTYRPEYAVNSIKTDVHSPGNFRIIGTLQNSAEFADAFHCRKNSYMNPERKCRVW
The experiment can be described thus: Neprilysin activity in NEP-enriched brain membrane fraction of WT mice. It is filed as biochemical, mouse (C57Bl/6j). The following applies: 40 μg protein, Thiorphan 100 nM. The procedure: To measure NEP activity in brain tissue, whole brains without cerebellum were dissected from adult mice (C57Bl/6j or 5XFAD) and homogenized with a Teflon-glass homogenizer in five volumes (w/v) of ice-cold lysis buffer containing PBS (pH 7.4), 0.25 M sucrose and protease inhibitor cocktail (Complete™, EDTA-free, Roche Diagnostics, Indianapolis, IN). The homogenates were centrifuged at 9000 × g for 15 min at 4 °C. The supernatants were further centrifuged at 20,000 × g at 4 °C for 20 min. The resulting pellets were solubilized in resuspension buffer containing PBS (pH 7.4) and 1% Triton X-100 for 1 h on ice and again centrifuged at 20,000 × g at 4 °C for 20 min. Clear supernatants were used as membrane-extracted fractions. Protein concentrations of Triton-extracted membrane fractions were determined using the Pierce BCA Protein Assay kit (Thermo Fisher Scientific). The standard assay mixture consisted of membrane fraction containing 40 μg total protein diluted in 40 μl of dilution buffer, 10 μl of testing compound (NL1, neurolide or vehicle), and 50 μl of NEP substrate (5-FAM/QXL; Anaspec) in a total volume of 100 μl. The reaction was initiated by adding substrate to the assay mixture. […] Positive and negative controls were set up according to the manufacturer’s protocol (Anaspec). Fluorescence was measured at Ex/Em = 485/535 nm every 20 min for 2 h. The data were expressed as percentage of relative activity of neprilysin.

In experiment [3] the target is T3, Aβ1-40 (Homo sapiens, UniProt P05067).
T3 construct: biotinylated Aβ1-40, at final concentration 400 nM; purchased Bachem AG (Bubendorf, Switzerland) or Schafer-N; host or cells: synthetic peptide
T3 sequence (P05067 672-711): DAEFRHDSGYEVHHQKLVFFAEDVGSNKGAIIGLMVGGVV
The experiment can be described thus: Competitive ELISA, binding to biotinylated Aβ1-40. The settings on record: Table 1, title prints Aβ1-42, text and method Aβ1-40, IC50 interpreted as KD. The procedure: NL1 and NL1-derived peptide binding to Aβ was measured by competitive ELISA using the shorter Aβ1-40 peptide with a slower polymerization constant, optimized for this binding assay. Recombinant NL1 (3.125 nM) was immobilized on a poly-sorb 96-well plate (NUNC, Roskilde, Denmark) using sodium bicarbonate buffer (pH 9.6), and left overnight at 4 °C, followed by washing with PBST buffer (PBS supplemented with 0.1% [vol/vol] Tween-20, pH 7.4). In separate tubes, biotinylated Aβ1-40, at final concentration 400 nM, was premixed with serially diluted NL1 or NL1-derived peptides for 30 min. A reversed version of Aβ (Aβ40-1) was used as the respective negative control (Supplementary Fig. 1). After preincubation, the samples were centrifuged at 20,000 × g for 10 min at 4 °C and 100 μl of the mixtures were transferred in triplicates onto the precoated ELISA plate. Plates were incubated at room temperature for 4 h, followed by washing and incubation with streptavidin-HRP conjugate (1:1000, 1 h; Dako, Glostrup, Denmark). The signal was developed with TMB ONE (KEM-EN-TEC, Denmark), and the reaction was terminated with 0.2 M H2SO4. Absorbance was measured at 450 nm on a Wallac VICTOR2 1420 Multilabel Counter (PerkinElmer, Hvidovre, Denmark). KD values were derived by sigmoidal dose–response (variable slope) fit of NL1 and neurolide dose–response curves after log transformation according to GraphPad Prism (version 6, GraphPad, San Diego, CA, USA). Obtained inhibitory concentration IC50 value was interpreted as KD value.

Experiment [4] deals with T4, recombinant neprilysin (NEP) (Homo sapiens, UniProt P08473).
T4 construct: purchased Anaspec, Fremont, California, USA (SensoLyte 520 Neprilysin Activity Assay Kit)
T4 sequence (P08473 whole entry): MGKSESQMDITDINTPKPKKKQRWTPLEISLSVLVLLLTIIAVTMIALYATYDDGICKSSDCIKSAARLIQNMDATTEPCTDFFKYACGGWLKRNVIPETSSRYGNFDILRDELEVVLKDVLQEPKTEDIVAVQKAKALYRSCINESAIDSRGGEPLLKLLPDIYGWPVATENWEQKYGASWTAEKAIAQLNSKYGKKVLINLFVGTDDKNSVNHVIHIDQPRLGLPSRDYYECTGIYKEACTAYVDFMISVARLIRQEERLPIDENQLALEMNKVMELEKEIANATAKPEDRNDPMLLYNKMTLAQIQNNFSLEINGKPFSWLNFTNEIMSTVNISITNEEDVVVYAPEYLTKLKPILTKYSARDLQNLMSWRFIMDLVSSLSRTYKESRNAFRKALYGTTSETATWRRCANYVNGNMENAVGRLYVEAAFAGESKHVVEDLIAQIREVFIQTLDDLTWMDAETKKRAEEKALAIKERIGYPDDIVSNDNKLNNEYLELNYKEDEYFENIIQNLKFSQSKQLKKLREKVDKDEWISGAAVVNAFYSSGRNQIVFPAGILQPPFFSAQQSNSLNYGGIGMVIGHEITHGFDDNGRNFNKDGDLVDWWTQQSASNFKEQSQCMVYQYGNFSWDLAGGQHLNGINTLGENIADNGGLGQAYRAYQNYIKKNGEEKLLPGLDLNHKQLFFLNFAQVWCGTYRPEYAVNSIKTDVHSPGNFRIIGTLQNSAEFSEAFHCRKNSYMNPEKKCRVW
Description: Neprilysin activity assay with recombinant enzyme (SensoLyte 520). It is filed as biochemical. The settings on record: peptide 5 μM, equimolar to neurolide; 5-FAM/QXL substrate, 2 h; four to five independent experiments. The procedure:
NEP activity was measured using the SensoLyte 520 Neprilysin Activity Assay Kit *Fluorimetric* (Anaspec, Fremont, California, USA) following the protocol provided by the manufacturer. Briefly, Aβ1-42 was dissolved in anhydrous DMSO to a stock concentration of 5 mM, followed by dilutions in assay buffer (100 μM, 50 μM, and 5 μM). Both NL1 (3 μM, 1 μM, 0.3 μM, 0.1 μM) and neurolide (100, 10, 5, and 1 μM) were dissolved in assay buffer. Randomly selected two additional NL1-derived peptides, NLp4, and NLp7 (5 μM, Table 1), were included in the analysis. The NEP solution (40 μl) was mixed with 10 μl of either NL1 or peptides and supplemented with 50 μl of NEP substrate (5-FAM/QXL), and the final mixture was incubated in black optical-bottom 96-well plate (Nunc, Rochester, New York, USA). In co-stimulation experiments, Aβ1-42, prepared as described above, was added to the solution in final concentrations either 0.5 μM or 5 μM. The fluorescence signal was recorded at Ex/Em = 485/535 nm every 20 min for 2 h. The data are presented as the relative activity of NEP alone.

The target of experiment [5] is Recombinant rat neuroligin-1 (NL1), soluble extracellular domain (rat) (UniProt Q62765). Description: SPR; Biacore 2000; about 2000 RU of NL1 immobilised on a CM4 chip by amine coupling; 25 °C; HBS-P (10 mM HEPES pH 7.4, 150 mM NaCl, 0.005% P20) with 3 mM CaCl2; 20 μl/min; 1:1 Langmuir model; apparent KD = kd/ka. In general terms: Surface plasmon resonance follows binding to a sensor surface in real time, without labels.

For experiment [6], the target named is Biotinylated amyloid-β peptide 1-40 (Aβ1-40). The experiment can be described thus: ELISA; competitive ELISA: NL1 (3.125 nM) coated on the plate; biotinylated Aβ1-40 (400 nM; Aβ40-1 as negative control) premixed 30 min with serially diluted NL1 or NL1-derived peptides; 4 h at room temperature; streptavidin-HRP; IC50 interpreted as KD. For orientation: An ELISA detects its analyte on a solid surface through an enzyme-linked reagent.

Where a SMILES comes first, the peptide text is derived from it. Bridges are numbered along the chain shown (N, C = ends). Roman numbers before positions name the chains, in order. Where no end group is shown, it is not given here.

T1 sequence (P05067 672-713): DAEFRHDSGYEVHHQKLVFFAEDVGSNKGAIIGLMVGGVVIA
Chain of Recombinant rat neurexin-1β (NX1β) (Q63373 47-391): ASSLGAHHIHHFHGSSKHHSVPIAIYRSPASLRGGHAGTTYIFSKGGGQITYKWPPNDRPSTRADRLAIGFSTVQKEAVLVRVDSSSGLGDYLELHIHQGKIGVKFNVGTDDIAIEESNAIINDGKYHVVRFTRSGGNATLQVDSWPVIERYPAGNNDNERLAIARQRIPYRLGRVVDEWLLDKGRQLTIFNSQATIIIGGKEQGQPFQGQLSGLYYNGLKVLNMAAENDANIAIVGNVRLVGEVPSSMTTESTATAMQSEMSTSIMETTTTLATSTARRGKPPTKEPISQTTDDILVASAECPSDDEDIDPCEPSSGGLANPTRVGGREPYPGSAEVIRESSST

On to `CC[C@H](C)[C@H](N)C(=O)N[C@H](C(=O)N[C@H](C(=O)N[C@@H](CC(N)=O)C(=O)N[C@@H](Cc1ccc(O)cc1)C(=O)N[C@@H](CCCNC(=N)N)C(=O)N[C@@H](CC(C)C)C(=O)NCC(=O)NCCCC[C@H](NC(=O)CNC(=O)[C@H](CC(C)C)NC(=O)[C@H](CCCNC(=N)N)NC(=O)[C@H](Cc1ccc(O)cc1)NC(=O)[C@H](CC(N)=O)NC(=O)[C@@H](NC(=O)[C@@H](NC(=O)[C@@H](N)[C@@H](C)CC)[C@@H](C)O)C(C)C)C(=O)NCCCC[C@H](NC(=O)[C@H](CCCCNC(=O)CNC(=O)[C@H](CC(C)C)NC(=O)[C@H](CCCNC(=N)N)NC(=O)[C@H](Cc1ccc(O)cc1)NC(=O)[C@H](CC(N)=O)NC(=O)[C@@H](NC(=O)[C@@H](NC(=O)[C@@H](N)[C@@H](C)CC)[C@@H](C)O)C(C)C)NC(=O)CNC(=O)[C@H](CC(C)C)NC(=O)[C@H](CCCNC(=N)N)NC(=O)[C@H](Cc1ccc(O)cc1)NC(=O)[C@H](CC(N)=O)NC(=O)[C@@H](NC(=O)[C@@H](NC(=O)[C@@H](N)[C@@H](C)CC)[C@@H](C)O)C(C)C)C(N)=O)C(C)C)[C@@H](C)O` [NLp2] (I: H-ITVNYRLGKK-NH2 / II: H-ITVNYRLGK / III: H-ITVNYRLG / IV: H-ITVNYRLG; amide I:9-IV:C, I:10-II:C, II:9-III:C; N-terminus and C-terminus assumed), for which, in experiment [1], the “development of ThT fluorescence (Aβ aggregation)” value is given as “had no effect”.

For `O=C(O)CNC(=O)C(CS)Cc1ccccc1` (stereo not shown) [Thiorphan, reference compound], in experiment [2], the “activity of brain-derived NEP” value is “completely blocked”.

On to “AENIVDSDDG [NLp4, NL1-derived peptide …]”, for which, in experiment [3], the “KD (binding affinities to Aβ1-42, as in the table title)” value is “No binding”. Also, the “activity of recombinant NEP” value in experiment [4] is listed as “had no effect”.

Turning to “AHTKPNRFEA [NLp6, NL1-derived peptide …]”, the “KD (binding affinities to Aβ1-42, as in the table title)” value in experiment [3] was “No binding”.

As for “ASDFDFAVSN [NLp5, NL1-derived peptide …]”, the “KD (binding affinities to Aβ1-42, as in the table title)” value in experiment [3] is reported as “No binding”.

Regarding ASFQPAKYA [NLp3, NL1-derived peptide …], the “KD (binding affinities to Aβ1-42, as in the table title)” value in experiment [3] is “No binding”.

Take “ATADLHSNFGS [NLp8, NL1-derived peptide …]”: in experiment [3], the “KD (binding affinities to Aβ1-42, as in the table title)” value is “No binding”.

Take Amyloid-β peptide 1-42 (Aβ1-42): in experiment [5], the Kd stood at 72 nM.

For “Recombinant rat neurexin-1β (NX1β) (from UniProt Q63373 47-391) (natural protein)”, the Kd in experiment [5] came out at 6.64 nM.

Consider “SGGPKPVMYIHG [NLp1, NL1-derived peptide …]”, for which the “KD (binding affinities to Aβ1-42, as in the table title)” value in experiment [3] is reported as “No binding”.

Regarding “SVPVTSAFPTAKQDDA [NLp7, NL1-derived peptide …]”, the “KD (binding affinities to Aβ1-42, as in the table title)” value in experiment [3] is recorded as “No binding”. Moreover, in experiment [1], the “development of ThT fluorescence (Aβ aggregation)” value was “had no effect”. The “activity of recombinant NEP” value in experiment [4] is reported as “had no effect”.

SEGNRWSNSTKGLFQRA (also: tetramer: four copies coupled to a lysine backbone) [Neurolide, NL1-derived synthetic peptide (tetramer on a lysine backbone)]: the Kd in experiment [6] turned out to be 35.3 nM.

Turning to ITVNYRLG (also: tetramer: four copies coupled to a lysine backbone) [NLp2, NL1-derived synthetic peptide (tetramer on a lysine backbone)], the Kd in experiment [6] came to 676 nM.
